# According to patent US20250179061A1 (SIRONAX LTD., priority 2022, published 2025):
# System: HT-29 cells
# Experiment: HT-29 necroptosis cell viability assay (TNF-α/SMAC mimetic/zVAD-FMK, CellTiter-Glo)
# Assay type: cell-based
# Conditions: Homo sapiens, HT-29, HT-29 cells, necroptosis induced by TNF-α/SMAC mimetic/zVAD-FMK, CellTiter-Glo; read-out: Activity (IC50 class)
# In short: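 Necroptosis was triggered by TNF-α (10 ng/ml), SMAC mimetic (6 μM) and zVAD-FMK (10 μM) in serum-free medium during 20 h compound exposure (10 concentrations, threefold steps) of HT-29 cells. IC50 from duplicate dose-responses uses CellTiter-Glo ATP luminescence as viability read-out.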
row,Structure (SMILES),IC50 [nM]
1,"Cc1nc(C2=CCOCC2)sc1Oc1ccc(-n2ncn(Cc3c(F)cccc3F)c2=O)cc1 [Example 631, 4-(2,6-difluorobenzyl)-2-(4-((2-(3,6-dihydro-2H-pyran-4-yl)-4-methylthiazol-5-yl)oxy)phenyl)-2,4-dihydro-3H-1,2,4-triazol-3-one]",< 100
2,"Cc1nc(C2=CCOC2)sc1Oc1ccc(-n2ncn(Cc3c(F)cccc3F)c2=O)cc1 [Example 632, 4-(2,6-difluorobenzyl)-2-(4-((2-(2,5-dihydrofuran-3-yl)-4-methylthiazol-5-yl)oxy)phenyl)-2,4-dihydro-3H-1,2,4-triazol-3-one]",< 100
3,"Cc1nc(C2=NCCN2C)sc1Oc1ccc(-n2ncn(Cc3c(F)cccc3F)c2=O)cc1 [Example 633, 4-(2,6-difluorobenzyl)-2-(4-((4-methyl-2-(1-methyl-4,5-dihydro-1H-imidazol-2-yl)thiazol-5-yl)oxy)phenyl)-2,4-dihydro-3H-1,2,4-triazol-3-one]",< 100
4,"Cc1nc(C=O)sc1Oc1ccc(-n2ncn(Cc3c(F)cccc3F)c2=O)cc1F [Example 634, 5-[4-[4-[(2,6-difluorophenyl)methyl]-5-oxo-1,2,4-triazol-1-yl]-2-fluoro-phenoxy]-4-methyl-thiazole-2-carbaldehyde]",< 100
5,"Cc1nc(C(N)=O)sc1OC1CCC(n2nc3n(c2=O)[C@H](c2ccccc2)CC3)CC1 (stereo partly drawn) [Example 635, (S)-4-methyl-5-((4-(3-oxo-5-phenyl-6,7-dihydro-3H-pyrrolo[2,1-c][1,2,4]triazol-2(5H)-yl)cyclohexyl)oxy)thiazole-2-carboxamide]",1000 to 10000
6,"Cc1nc(CC(=O)O)sc1Oc1ccc(-n2ncn(Cc3c(F)cccc3F)c2=O)cc1F [Example 637, 2-[5-[4-[4-[(2,6-difluorophenyl)methyl]-5-oxo-1,2,4-triazol-1-yl]-2-fluoro-phenoxy]-4-methyl-thiazol-2-yl]acetic acid]",< 100
7,"Cc1nc(C(=O)NC2CCOCC2)sc1Oc1ccc(-n2ncn(Cc3ccccc3F)c2=O)cc1F [Example 642, 5-[2-fluoro-4-[4-[(2-fluorophenyl)methyl]-5-oxo-1,2,4-triazol-1-yl]phenoxy]-4-methyl-N-tetrahydropyran-4-yl-thiazole-2-carboxamide]",< 100

# Same assay, conditions: Homo sapiens, HT-29, HT-29 necroptosis cell viability assay; class symbols for IC50; read-out: Activity
row,Structure (SMILES),IC50 [nM]
1,"Cc1nc(C(=O)N2CC3(COC3)C2)sc1Oc1ccc(-n2ncn(Cc3ccccc3F)c2=O)cc1F [Example 605, 2-(3-fluoro-4-((4-methyl-2-(2-oxa-6-azaspiro[3.3]heptane-6-carbonyl)thiazol-5-yl)oxy)phenyl)-4-(2-fluorobenzyl)-2,4-dihydro-3H-1,2,4-triazol-3-one]",< 100
2,"Cc1nc(C(N)=O)sc1Oc1ccc(-n2ncn(Cc3ncccc3F)c2=O)cc1F [Example 606, 5-(2-fluoro-4-(4-((3-fluoropyridin-2-yl)methyl)-5-oxo-4,5-dihydro-1H-1,2,4-triazol-1-yl)phenoxy)-4-methylthiazole-2-carboxamide]",< 100
3,"Cc1nc(C(=O)NCC2COC2)sc1Oc1ccc(-n2ncn(Cc3ncccc3F)c2=O)cc1F [Example 607, 5-(2-fluoro-4-(4-((3-fluoropyridin-2-yl)methyl)-5-oxo-4,5-dihydro-1H-1,2,4-triazol-1-yl)phenoxy)-4-methyl-N-(oxetan-3-ylmethyl)thiazole-2-carboxamide]",< 100
4,"Cc1nc(C(=O)N2CC(C)(O)C2)sc1Oc1ccc(-n2ncn(Cc3ncccc3F)c2=O)cc1F [Example 608, 2-(3-fluoro-4-((2-(3-hydroxy-3-methylazetidine-1-carbonyl)-4-methylthiazol-5-yl)oxy)phenyl)-4-((3-fluoropyridin-2-yl)methyl)-2,4-dihydro-3H-1,2,4-triazol-3-one]",< 100
5,"CNC(=O)c1nc(C)c(Oc2ccc(-n3ncn(Cc4c(F)cccc4F)c3=O)cc2F)s1 [Example 609, 5-(4-(4-(2,6-difluorobenzyl)-5-oxo-4,5-dihydro-1H-1,2,4-triazol-1-yl)-2-fluorophenoxy)-N,4-dimethylthiazole-2-carboxamide]",< 100
6,"CCNC(=O)c1nc(C)c(Oc2ccc(-n3ncn(Cc4c(F)cccc4F)c3=O)cc2F)s1 [Example 610, 5-(4-(4-(2,6-difluorobenzyl)-5-oxo-4,5-dihydro-1H-1,2,4-triazol-1-yl)-2-fluorophenoxy)-N-ethyl-4-methylthiazole-2-carboxamide]",< 100
7,"Cc1nc(C(=O)N(C)C)sc1Oc1ccc(-n2ncn(Cc3c(F)cccc3F)c2=O)cc1F [Example 611, 5-(4-(4-(2,6-difluorobenzyl)-5-oxo-4,5-dihydro-1H-1,2,4-triazol-1-yl)-2-fluorophenoxy)-N,N,4-trimethylthiazole-2-carboxamide]",< 100
8,"Cc1nc(NC(=O)OC(C)(C)C)sc1Sc1ccc(-n2ncn(Cc3ccccc3)c2=O)cc1 [Example 612, tert-butyl (5-((4-(4-benzyl-5-oxo-4,5-dihydro-1H-1,2,4-triazol-1-yl)phenyl)thio)-4-methylthiazol-2-yl)carbamate]",< 100
9,"Cc1nc(C2(N)CC2)sc1Oc1ccc(-n2ncn(Cc3c(F)cccc3F)c2=O)cc1F [Example 613, 2-(4-((2-(1-aminocyclopropyl)-4-methylthiazol-5-yl)oxy)-3-fluorophenyl)-4-(2,6-difluorobenzyl)-2,4-dihydro-3H-1,2,4-triazol-3-one]",< 100
10,"Cc1nc(C2(N)COC2)sc1Oc1ccc(-n2ncn(Cc3c(F)cccc3F)c2=O)cc1F [Example 614, 2-(4-((2-(3-aminooxetan-3-yl)-4-methylthiazol-5-yl)oxy)-3-fluorophenyl)-4-(2,6-difluorobenzyl)-2,4-dihydro-3H-1,2,4-triazol-3-one]",< 100
11,"N#Cc1cc(S(=O)(=O)c2ccc(-n3ncn(Cc4ccccc4)c3=O)cc2)ccn1 [Example 615, 4-((4-(4-benzyl-5-oxo-4,5-dihydro-1H-1,2,4-triazol-1-yl)phenyl)sulfonyl)picolinonitrile]",< 100
12,"COc1cc(S(=O)(=O)c2ccc(-n3ncn(Cc4ccccc4)c3=O)cc2)ccn1 [Example 616, 4-benzyl-2-(4-((2-methoxypyridin-4-yl)sulfonyl)phenyl)-2,4-dihydro-3H-1,2,4-triazol-3-one]",< 100
13,"COc1cc(S(=O)(=O)c2ccc(-n3nc4n(c3=O)C(c3ccccc3)CC4)cc2)ccn1 (centres unmarked) [Example 617, 2-(4-((2-methoxypyridin-4-yl)sulfonyl)phenyl)-5-phenyl-2,5,6,7-tetrahydro-3H-pyrrolo[2,1-c][1,2,4]triazol-3-one]",< 100
14,"COc1cc(S(=O)(=O)c2ccc(-n3ncn(Cc4c(F)cccc4F)c3=O)cc2)ccn1 [Example 618, 4-(2,6-difluorobenzyl)-2-(4-((2-methoxypyridin-4-yl)sulfonyl)phenyl)-2,4-dihydro-3H-1,2,4-triazol-3-one]",< 100
15,"Cc1nn(-c2ccc(S(=O)(=O)N3CCN(C4CCCC4)CC3)cc2)c(=O)n1Cc1ccccc1 [Example 619, 4-benzyl-2-(4-((4-cyclopentylpiperazin-1-yl)sulfonyl)phenyl)-5-methyl-2,4-dihydro-3H-1,2,4-triazol-3-one]",> 10000
16,"Cc1nn(-c2ccc(S(=O)(=O)N3CCN(C4CCCCC4)CC3)cc2)c(=O)n1Cc1ccccc1 [Example 620, 4-benzyl-2-(4-((4-cyclohexylpiperazin-1-yl)sulfonyl)phenyl)-5-methyl-2,4-dihydro-3H-1,2,4-triazol-3-one]",1000 to 10000
17,"Cc1nn(-c2ccc(S(=O)(=O)N3CCN(C4CCOCC4)CC3)cc2)c(=O)n1Cc1ccccc1 [Example 621, 4-benzyl-5-methyl-2-(4-((4-(tetrahydro-2H-pyran-4-yl)piperazin-1-yl)sulfonyl)phenyl)-2,4-dihydro-3H-1,2,4-triazol-3-one]",> 10000
18,"Cc1nn(-c2ccc(S(=O)(=O)N3CCN(CC4CCOCC4)CC3)cc2)c(=O)n1Cc1ccccc1 [Example 622, 4-benzyl-5-methyl-2-(4-((4-((tetrahydro-2H-pyran-4-yl)methyl)piperazin-1-yl)sulfonyl)phenyl)-2,4-dihydro-3H-1,2,4-triazol-3-one]",100 to 1000
19,Cc1nn(-c2ccc(S(=O)(=O)N3CCN(C4COC4)CC3)cc2)c(=O)n1Cc1ccccc1 [Example 623],> 10000
20,Cc1nn(-c2ccc(S(=O)(=O)N3CCN(CC4CCC4)CC3)cc2)c(=O)n1Cc1ccccc1 [Example 624],1000 to 10000
21,"Cc1nn(-c2ccc(S(=O)(=O)N3CCN(CC4CCOC4)CC3)cc2)c(=O)n1Cc1ccccc1 (centres unmarked) [Example 625, 4-benzyl-5-methyl-2-(4-((4-((tetrahydrofuran-3-yl)methyl)piperazin-1-yl)sulfonyl)phenyl)-2,4-dihydro-3H-1,2,4-triazol-3-one]",100 to 1000
22,"Cc1nn(-c2ccc(S(=O)(=O)N3CCN(C4CCCOC4)CC3)cc2)c(=O)n1Cc1ccccc1 (centres unmarked) [Example 626, 4-benzyl-5-methyl-2-(4-((4-(tetrahydro-2H-pyran-3-yl)piperazin-1-yl)sulfonyl)phenyl)-2,4-dihydro-3H-1,2,4-triazol-3-one]",1000 to 10000
23,"Cc1nc(N)sc1S(=O)(=O)c1ccc(-n2ncn(Cc3ccccc3)c2=O)cc1 [Example 627, 2-(4-((2-amino-4-methylthiazol-5-yl)sulfonyl)phenyl)-4-benzyl-2,4-dihydro-3H-1,2,4-triazol-3-one]",100 to 1000
24,"Cc1nc(NC(=O)OC(C)(C)C)sc1S(=O)(=O)c1ccc(-n2ncn(Cc3ccccc3)c2=O)cc1 [Example 629, tert-butyl (5-((4-(4-benzyl-5-oxo-4,5-dihydro-1H-1,2,4-triazol-1-yl)phenyl)sulfonyl)-4-methylthiazol-2-yl)carbamate]",100 to 1000
25,"N#Cc1cc(Oc2ccc(-n3ncn(Cc4c(F)cccc4F)c3=O)cc2)ncn1 [Example 630, 6-(4-(4-(2,6-difluorobenzyl)-5-oxo-4,5-dihydro-1H-1,2,4-triazol-1-yl)phenoxy)pyrimidine-4-carbonitrile]",1000 to 10000
